Laboratory results published in PubChem BioAssay AID248 (DTP/NCI, 2004).
Inconclusive results and toxic doses are left out. Cut-off read from the data, not from the text of the source: active = T/C of 150% or more; inactive = T/C below 125%.

Tested on: L1210 leukemia ip in BDF1 mice, survival T/C
Assay: NCI In Vivo Anticancer Drug Screen. Data for tumor model L1210 Leukemia (intraperitoneal) in B6D2F1 (BDF1) mice
Conditions: endpoint: mean survival time, higher = longer survival
Procedure, shortened: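 Transplanted-tumor mice were given test agent; controls received vehicle only. Survival readings from the two groups were divided (treated over control).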

Measured: T/C

CC1=NC(C(=O)Cl)NN1c1ccccc1 (stereo unspecified)
inactive: dose: 25.0 mg/kg/injection, schedule: Q01DX009 (ip), vehicle: saline 101 % of control | dose: 25.0 mg/kg/injection, schedule: Q04DX003 (ip), vehicle: saline with Tween-80 96 % of control | dose: 50.0 mg/kg/injection, schedule: Q01DX009 (ip), vehicle: saline 97 % of control | dose: 50.0 mg/kg/injection, schedule: Q04DX003 (ip), vehicle: saline with Tween-80 101 % of control | dose: 100.0 mg/kg/injection, schedule: Q01DX001 (ip), vehicle: saline 93 % of control | dose: 100.0 mg/kg/injection, schedule: Q01DX009 (ip), vehicle: saline 95 % of control | dose: 100.0 mg/kg/injection, schedule: Q04DX003 (ip), vehicle: saline with Tween-80 98 % of control

C[CH2][Sn](/[CH]=C\CO)([CH2]C)[CH2]C
inactive: dose: 0.78 mg/kg/injection, schedule: Q01DX009 (ip), vehicle: saline 86 % of control | dose: 1.56 mg/kg/injection, schedule: Q01DX009 (ip), vehicle: saline 104 % of control | dose: 3.12 mg/kg/injection, schedule: Q01DX009 (ip), vehicle: saline 90 % of control

O=C(/C=C/c1ccccc1)C1CC1
inactive: dose: 100.0 mg/kg/injection, schedule: Q04DX003 (ip), vehicle: other 101 % of control | dose: 200.0 mg/kg/injection, schedule: Q04DX003 (ip), vehicle: other 98 % of control | dose: 400.0 mg/kg/injection, schedule: Q04DX003 (ip), vehicle: other 98 % of control

CC(C)(C)C(=O)Nc1ccc(NS(=O)(=O)c2ccccc2)c(Cl)c1
inactive: dose: 50.0 mg/kg/injection, schedule: Q01DX001 (ip), vehicle: Klucel (hydroxypropylcellulose) (HPC) 108 % of control | dose: 100.0 mg/kg/injection, schedule: Q01DX001 (ip), vehicle: Klucel (hydroxypropylcellulose) (HPC) 97 % of control | dose: 200.0 mg/kg/injection, schedule: Q01DX001 (ip), vehicle: Klucel (hydroxypropylcellulose) (HPC) 109 % of control

NC(=S)SCCC(=O)O
inactive: dose: 100.0 mg/kg/injection, schedule: Q01DX009 (ip), vehicle: Klucel (hydroxypropylcellulose) (HPC) 96 % of control | dose: 200.0 mg/kg/injection, schedule: Q01DX009 (ip), vehicle: Klucel (hydroxypropylcellulose) (HPC) 100 % of control | dose: 200.0 mg/kg/injection, schedule: Q04DX003 (ip), vehicle: Klucel (hydroxypropylcellulose) (HPC) 93 % of control | dose: 400.0 mg/kg/injection, schedule: Q01DX009 (ip), vehicle: Klucel (hydroxypropylcellulose) (HPC) 94 % of control | dose: 400.0 mg/kg/injection, schedule: Q04DX003 (ip), vehicle: Klucel (hydroxypropylcellulose) (HPC) 92 % of control
